Assay results published in patent publication US20230085307A1, “PYRIDAZINONE COMPOUND AND HERBICIDE” (NISSAN CHEMICAL CORPORATION, priority 2019, published 2023).

How the values were obtained:
oval-leafed pondweed = assay: Test Example 2: herbicidal activity, application during weed generation under submerged conditions (Table 17, symbol C); format: in vivo, oval-leafed pondweed (Monochoria vaginalis); settings: application during weed generation, submerged conditions
Outline: (§1)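 Wagner pot, alluvial soil, 4 cm flood; mixed sowing of all species; greenhouse 25° C.–30° C. Emulsifiable formulation, water-diluted to predetermined dose, applied to paddy water at 1–2 leaf stage. Effect rated at 3 wk using the earlier test's scoring criteria.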

rice flat sedge = assay: Test Example 3: herbicidal effect by foliage application, Wagner pot (Table 18, symbol E); format: in vivo, rice flat sedge (Cyperus iria)
Outline: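 Plants were sown in alluvial soil held under 0.1–0.5 cm standing water and grown 14 days in a greenhouse at 25–30 °C. An emulsifiable formulation, water-diluted to the set dose, was then sprayed onto the foliage, and effects were scored three weeks later using previously defined criteria.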

late watergrass = assay: Test Example 1: herbicidal activity, application before weed generation under submerged conditions (Table 16, symbol A); format: in vivo, late watergrass (Echinochloa oryzicola); settings: for Herbicidal effect on A: late watergrass (grade 0-5): 320 g/ha applied herbicide
Outline: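 Alluvial soil was flooded to 4 cm depth, weed seeds were sown mixed and 2.5-leaf rice seedlings were transplanted. On sowing day, the compound's emulsion, diluted in water to a set dose, was applied to the water surface. Plants grew at 25–30 °C and were scored 0–5 after three weeks.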

redroot pigweed = assay: Test Example 4: herbicidal effect by soil treatment (Table 19, symbol N); format: in vivo, redroot pigweed (Amaranthus retroflexus)
Outline: (§2)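 Pre-emergence style soil spray: seeds under ~1.5 cm sterilized diluvial soil received a uniform coat of emulsion diluted to the predetermined herbicide amount. Greenhouse 25–30° C; readout at week three on previously defined criteria.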

Japanese bulrush = assay: Test Example 2: herbicidal activity, application during weed generation under submerged conditions (Table 17, symbol B); format: in vivo, Japanese bulrush (Schoenoplectus juncoides); settings: application during weed generation, submerged conditions
Outline: as §1

persian speedwell = assay: Test Example 5: herbicidal effect by foliage application, plastic box (Table 20, symbol R); format: in vivo, Persian speedwell (Veronica persica); settings: foliage application
Outline: (§3)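 Plants were sown into sterilized diluvial soil under about 1.5 cm cover and kept in a greenhouse at 25° C. to 30° C. Fourteen days on, foliage received an even spray of the diluted emulsion. Herbicidal or crop effect was judged three weeks afterwards.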

chickweed [1] = assay: Test Example 4: herbicidal effect by soil treatment (Table 19, symbol P); format: in vivo, common chickweed (Stellaria media)
Outline: as §2

Italian ryegrass = assay: Test Example 4: herbicidal effect by soil treatment (Table 19, symbol K); format: in vivo, Italian ryegrass (Lolium multiflorum)
Outline: as §2

green foxtail [2] = assay: Test Example 5: herbicidal effect by foliage application, plastic box (Table 20, symbol G); format: in vivo, green foxtail (Setaria viridis); settings: foliage application
Outline: as §3

southern crabgrass [3] = assay: Test Example 4: herbicidal effect by soil treatment (Table 19, symbol F); format: in vivo, southern crabgrass (Digitaria ciliaris)
Outline: as §2

southern crabgrass [4] = assay: Test Example 5: herbicidal effect by foliage application, plastic box (Table 20, symbol F); format: in vivo, southern crabgrass (Digitaria ciliaris); settings: foliage application
Outline: as §3

green foxtail [5] = assay: Test Example 4: herbicidal effect by soil treatment (Table 19, symbol G); format: in vivo, green foxtail (Setaria viridis)
Outline: as §2

wild oat = assay: Test Example 5: herbicidal effect by foliage application, plastic box (Table 20, symbol I); format: in vivo, wild oat (Avena fatua); settings: foliage application
Outline: as §3

windgrass = assay: Test Example 5: herbicidal effect by foliage application, plastic box (Table 20, symbol L); format: in vivo, windgrass (Apera spica-venti); settings: foliage application
Outline: as §3

chickweed [6] = assay: Test Example 5: herbicidal effect by foliage application, plastic box (Table 20, symbol P); format: in vivo, common chickweed (Stellaria media); settings: foliage application
Outline: as §3

blackgrass = assay: Test Example 4: herbicidal effect by soil treatment (Table 19, symbol J); format: in vivo, blackgrass (Alopecurus myosuroides)
Outline: as §2

[7] = amount of applied herbicide 80 g/ha
[8] = 80 g/ha, three weeks after application
[9] = amount of applied herbicide 320 g/ha
[10] = 320 g/ha, three weeks after application
[11] = 320 g/ha, evaluated three weeks after application

## CCOc1ccccc1-c1sc2cc(OC)ccc2c1-c1c(O)c(C)nn(C)c1=O [3-070]
oval-leafed pondweed; AAH 80 g/ha
  herbicidal effect rating, C: oval-leafed pondweed: 4 (Herbicidal rate of 70% or more and less than 90%)
Rice flat sedge; 80 g/ha
  herbicidal effect on rice flat sedge (E): 5 (Herbicidal rate of 90% or more (almost completely withered))
Late watergrass; [7]
  Herbicidal effect, A: late watergrass: 5 (Herbicidal rate of 90% or more (almost completely withered))
Redroot pigweed; [7]
  N: redroot pigweed, herbicidal effect grade: 0 (Herbicidal rate of 5% or less (almost no effect))
Japanese bulrush; AAH 80 g/ha
  herbicidal effect rating, B: Japanese bulrush: 5 (Herbicidal rate of 90% or more (almost completely withered))
Persian speedwell; [8]
  R: persian speedwell, herbicidal effect grade: 5 (Herbicidal rate of 90% or more (almost completely withered))
Chickweed [1]; [7]
  P: chickweed, herbicidal effect grade: 4 (Herbicidal rate of 70% or more and less than 90%)
Italian ryegrass; [7]
  K: Italian ryegrass, herbicidal effect grade: 0 (Herbicidal rate of 5% or less (almost no effect))
Green foxtail [2]; [8]
  G: green foxtail, herbicidal effect grade: 4 (Herbicidal rate of 70% or more and less than 90%)
Southern crabgrass [3]; [7]
  F: southern crabgrass, herbicidal effect grade: 4 (Herbicidal rate of 70% or more and less than 90%)
Southern crabgrass [4]; [8]
  F: southern crabgrass, herbicidal effect grade: 5 (Herbicidal rate of 90% or more (almost completely withered))
Green foxtail [5]; [7]
  G: green foxtail, herbicidal effect grade: 3 (Herbicidal rate of 40% or more and less than 70%)
Wild oat; [8]
  I: wild oat, herbicidal effect grade: 5 (Herbicidal rate of 90% or more (almost completely withered))
windgrass; [8]
  L: windgrass, herbicidal effect grade: 5 (Herbicidal rate of 90% or more (almost completely withered))
Chickweed [6]; [8]
  P: chickweed, herbicidal effect grade: 5 (Herbicidal rate of 90% or more (almost completely withered))
blackgrass; [7]
  J: blackgrass, herbicidal effect grade: 0 (Herbicidal rate of 5% or less (almost no effect))

## CCCCOc1ccc(-c2sc3ccccc3c2-c2c(O)c(C)nn(C)c2=O)cc1 [1-024]
oval-leafed pondweed; AAH 320 g/ha
  herbicidal effect rating, C: oval-leafed pondweed: 5 (Herbicidal rate of 90% or more (almost completely withered))
Rice flat sedge; 320 g/ha
  herbicidal effect on E (rice flat sedge), rating 0-5: 5 (Herbicidal rate of 90% or more (almost completely withered))
Late watergrass
  Herbicidal effect on A: late watergrass (grade 0-5): 5 (Herbicidal rate of 90% or more (almost completely withered))
Redroot pigweed; [9]
  herbicidal effect rating, N: redroot pigweed: 4 (Herbicidal rate of 70% or more and less than 90%)
Japanese bulrush; AAH 320 g/ha
  herbicidal effect rating, B: Japanese bulrush: 4 (Herbicidal rate of 70% or more and less than 90%)
Persian speedwell; [10]
  herbicidal effect grade, R: persian speedwell: 5 (Herbicidal rate of 90% or more (almost completely withered))
Chickweed [1]; [9]
  herbicidal effect rating, P: chickweed: 4 (Herbicidal rate of 70% or more and less than 90%)
Italian ryegrass; [9]
  herbicidal effect rating, K: Italian ryegrass: 0 (Herbicidal rate of 5% or less (almost no effect))
Green foxtail [2]; [10]
  herbicidal effect grade, G: green foxtail: 5 (Herbicidal rate of 90% or more (almost completely withered))
Southern crabgrass [3]; [9]
  herbicidal effect rating, F: southern crabgrass: 0 (Herbicidal rate of 5% or less (almost no effect))
Southern crabgrass [4]; [10]
  herbicidal effect grade, F: southern crabgrass: 5 (Herbicidal rate of 90% or more (almost completely withered))
Green foxtail [5]; [9]
  herbicidal effect rating, G: green foxtail: 0 (Herbicidal rate of 5% or less (almost no effect))
Wild oat; [10]
  herbicidal effect grade, I: wild oat: 4 (Herbicidal rate of 70% or more and less than 90%)
windgrass; [10]
  herbicidal effect grade, L: windgrass: 4 (Herbicidal rate of 70% or more and less than 90%)
Chickweed [6]; [10]
  herbicidal effect grade, P: chickweed: 5 (Herbicidal rate of 90% or more (almost completely withered))
blackgrass; [9]
  herbicidal effect rating, J: blackgrass: 0 (Herbicidal rate of 5% or less (almost no effect))

## Cc1nn(C)c(=O)c(-c2c(-c3ccc(OC4CC4)cc3)sc3ccc(F)cc23)c1O [2-217]
oval-leafed pondweed; AAH 320 g/ha
  herbicidal effect rating, C: oval-leafed pondweed: 0 (Herbicidal rate of 5% or less (almost no effect))
Rice flat sedge; [9]
  herbicidal effect on E: rice flat sedge: 5 (Herbicidal rate of 90% or more (almost completely withered))
Late watergrass
  Herbicidal effect on A: late watergrass (grade 0-5): 5 (Herbicidal rate of 90% or more (almost completely withered))
Redroot pigweed; [9]
  N: redroot pigweed, herbicidal effect rating: 4 (Herbicidal rate of 70% or more and less than 90%)
Japanese bulrush; AAH 320 g/ha
  herbicidal effect rating, B: Japanese bulrush: 3 (Herbicidal rate of 40% or more and less than 70%)
Persian speedwell; [11]
  herbicidal effect on R: persian speedwell (criteria 0-5): 5 (Herbicidal rate of 90% or more (almost completely withered))
Chickweed [1]; [9]
  P: chickweed, herbicidal effect rating: 4 (Herbicidal rate of 70% or more and less than 90%)
Italian ryegrass; [9]
  K: Italian ryegrass, herbicidal effect rating: 4 (Herbicidal rate of 70% or more and less than 90%)
Green foxtail [2]; [11]
  herbicidal effect on G: green foxtail (criteria 0-5): 4 (Herbicidal rate of 70% or more and less than 90%)
Southern crabgrass [3]; [9]
  F: southern crabgrass, herbicidal effect rating: 4 (Herbicidal rate of 70% or more and less than 90%)
Southern crabgrass [4]; [11]
  herbicidal effect on F: southern crabgrass (criteria 0-5): 3 (Herbicidal rate of 40% or more and less than 70%)
Green foxtail [5]; [9]
  G: green foxtail, herbicidal effect rating: 1 (Herbicidal rate of 5% or more and less than 20%)
Wild oat; [11]
  herbicidal effect on I: wild oat (criteria 0-5): 4 (Herbicidal rate of 70% or more and less than 90%)
windgrass; [11]
  herbicidal effect on L: windgrass (criteria 0-5): 5 (Herbicidal rate of 90% or more (almost completely withered))
Chickweed [6]; [11]
  herbicidal effect on P: chickweed (criteria 0-5): 5 (Herbicidal rate of 90% or more (almost completely withered))
blackgrass; [9]
  J: blackgrass, herbicidal effect rating: 0 (Herbicidal rate of 5% or less (almost no effect))
